Legend:
Assay in all cases: Bliss excess, mean over the matrix (fraction); higher = more synergy
HCC70 (Breast Carcinoma) = test system: HCC70 (Breast Carcinoma)
Summary of the method: (§1)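 Cell lines in DMEM/F12 or RPMI with 10% FBS were plated in 1536-well plates, held 24 hours at 37°C, 5% CO2, then given two-drug dose matrices for 72 hours (DMSO typically 0.2%). Viability was read by CellTiter-Glo 2.0 luminescence and scaled as inhibition from 0 (vehicle wells) to 1 (blank wells). Combination Emax is the second-highest inhibition in the matrix; Bliss excess is observed combination effect minus expected EA + EB − EA·EB, EA and EB being single-agent effects.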

[1] = test system: 22RV1 (Prostate Carcinoma)
Summary of the method: as §1

WM1552C (Melanoma) = test system: WM1552C (Melanoma)
Summary of the method: as §1

[2] = test system: Jurkat (T-Lymphoblastic Leukemia)
Summary of the method: as §1

[3] = test system: NCI-H2087 (Lung Adenocarcinoma)
Summary of the method: as §1

[4] = test system: HCC1428 (Breast Carcinoma)
Summary of the method: as §1

[5] = test system: DMS-53 (Small Cell Lung Carcinoma)
Summary of the method: as §1

[6] = test system: GA-10 (Burkitt's Lymphoma)
Summary of the method: as §1

[7] = test system: SW620 (Colorectal Carcinoma)
Summary of the method: as §1

[8] = test system: NCI-H2228 (Lung Adenocarcinoma)
Summary of the method: as §1

[9] = test system: JIMT-1 (Breast Carcinoma)
Summary of the method: as §1

[10] = test system: CA46 (Burkitt's Lymphoma)
Summary of the method: as §1

RH-41 (Rhabdomyosarcoma) = test system: RH-41 (Rhabdomyosarcoma)
Summary of the method: as §1

A204 (Rhabdomyosarcoma) = test system: A204 (Rhabdomyosarcoma)
Summary of the method: as §1

[11] = test system: EPLC-272H (Other Solid Carcinomas)
Summary of the method: as §1

[12] = test system: LS-411N (Colorectal Carcinoma)
Summary of the method: as §1

[13] = test system: JHU-022 (Oral Cavity Carcinoma)
Summary of the method: as §1

[14] = test system: HCC1395 (Breast Carcinoma)
Summary of the method: as §1

[15] = test system: OACp4C (Esophageal Adenocarcinoma)
Summary of the method: as §1

[16] = test system: A2780 (Ovarian Carcinoma)
Summary of the method: as §1

Structure (SMILES)	Bliss excess (HCC70 (Breast Carcinoma))	Bliss excess [1]	Bliss excess (WM1552C (Melanoma))	Bliss excess [2]	Bliss excess [3]	Bliss excess [4]	Bliss excess [5]	Bliss excess [6]	Bliss excess [7]	Bliss excess [8]	Bliss excess [9]	Bliss excess [10]	Bliss excess (RH-41 (Rhabdomyosarcoma))	Bliss excess (A204 (Rhabdomyosarcoma))	Bliss excess [11]	Bliss excess [12]	Bliss excess [13]	Bliss excess [14]	Bliss excess [15]	Bliss excess [16]
CN(C)CCCOc1ccc(-c2ccc3ncc4c(c3c2)n(C2CCOCC2)c(=O)n4C)cn1 [AZD0156] + C=CCn1c(=O)c2cnc(Nc3ccc(N4CCN(C)CC4)cc3)nc2n1-c1cccc(C(C)(C)O)n1 [AZD1775] (first compound max 1 µM, partner max 1 µM)	-0.0682	-0.095	0.0116	0.0794	-0.071	-0.115	-0.028	0.026	-0.0262	-0.0934	-0.0287	-0.0283	-0.0175	-0.0545	-0.0105	-0.0042	-0.0446	-0.0648	-0.0245	-0.0284
CN(C)CCCOc1ccc(-c2ccc3ncc4c(c3c2)n(C2CCOCC2)c(=O)n4C)cn1 [AZD0156] + CCN(CCO)CCCOc1ccc2c(Nc3cc(CC(=O)Nc4cccc(F)c4)[nH]n3)ncnc2c1 [AZD2811] (first compound max 1 µM, 7x7, partner max 1 µM)	-0.0184	-0.0279	-0.0135	0.0543	-0.0251	-0.06	-0.0251	0.0158	-0.0064	-0.0223	-0.0181	0.0059	0.0369	-0.0335	0.0394	-0.0168	-0.0143	-0.0936	0.0091	0.0336
CN(C)CCCOc1ccc(-c2ccc3ncc4c(c3c2)n(C2CCOCC2)c(=O)n4C)cn1 [AZD0156] + C[C@@H]1COCCN1C2=NC(=NC(=C2)C3(CC3)[S@](=N)(=O)C)C4=C5C=CNC5=NC=C4 [AZD6738] (first compound max 1 µM, 7x7, partner max 10 µM)	-0.0103	-0.0678	0.0189	0.1	-0.0008	-0.0541	-0.0249	0.0921	0.0308	-0.024	0.0042	0.0799	0.0593	-0.038	0.0156	-0.0145	-0.0103	-0.0245	0.0169	-0.0114
CN(C)CCCOc1ccc(-c2ccc3ncc4c(c3c2)n(C2CCOCC2)c(=O)n4C)cn1 [AZD0156] + O=C(c1cc(Cc2n[nH]c(=O)c3ccccc23)ccc1F)N1CCN(C(=O)C2CC2)CC1 [Olaparib] (first compound max 3 µM, partner max 3 µM)	-0.0548	0.0313	0.0213	0.174	-0.043	0.0051	-0.0283	0.131	0.0953	0.0272	-0.0233	0.0156	0.0128	-0.0255	-0.0122	0.0922	-0.0079	0.0515	-0.0005	0.198
C=CCn1c(=O)c2cnc(Nc3ccc(N4CCN(C)CC4)cc3)nc2n1-c1cccc(C(C)(C)O)n1 [AZD1775] + C1CN(CCC1(C(=O)N[C@@H](CCO)C2=CC=C(C=C2)Cl)N)C3=NC=NC4=C3C=CN4 [Capivasertib] (first compound max 3 µM, partner max 3 µM)	-0.0235	-0.0348	0.0306	0.185	-0.0287	-0.0203	-0.007	0.0431	-0.0402	-0.0181	0.0069	-0.0101	-0.0387	-0.0131	-0.0011	-0.0551	-0.022	-0.0085	0.0005	0.0361
C=CCn1c(=O)c2cnc(Nc3ccc(N4CCN(C)CC4)cc3)nc2n1-c1cccc(C(C)(C)O)n1 [AZD1775] + C[C@@H]1COCCN1C2=NC(=NC(=C2)C3(CC3)[S@](=N)(=O)C)C4=C5C=CNC5=NC=C4 [AZD6738] (first compound max 1 µM, partner max 10 µM)	-0.0312	-0.0536	0.0011	0.038	-0.0317	0.0035	0.0115	0.0096	0.0144	-0.0399	-0.01	0.0061	0.0493	-0.0421	0.0036	0.0732	-0.0276	0.0091	-0.028	0.0221
C=CCn1c(=O)c2cnc(Nc3ccc(N4CCN(C)CC4)cc3)nc2n1-c1cccc(C(C)(C)O)n1 [AZD1775] + O=C(c1cc(Cc2n[nH]c(=O)c3ccccc23)ccc1F)N1CCN(C(=O)C2CC2)CC1 [Olaparib] (first compound max 1 µM, partner max 10 µM)	-0.0479	-0.0296	-0.0941	-0.0088	-0.0212	-0.0279	-0.0715	-0.0462	-0.0395	0.0107	-0.0795	-0.0612	-0.0484	-0.0881	0.0169	-0.0608	-0.0257	-0.0557	-0.055	-0.0256
CCN(CCO)CCCOc1ccc2c(Nc3cc(CC(=O)Nc4cccc(F)c4)[nH]n3)ncnc2c1 [AZD2811] + C=CCn1c(=O)c2cnc(Nc3ccc(N4CCN(C)CC4)cc3)nc2n1-c1cccc(C(C)(C)O)n1 [AZD1775] (first compound max 1 µM, partner max 1 µM)	-0.0112	-0.0367	0.0035	0.0809	-0.0831	-0.0478	-0.0378	0.0303	-0.0367	0.0112	-0.0159	0.0165	0.0118	0.0168	-0.0341	-0.0174	-0.0217	-0.0904	-0.0436	0.088
CCN(CCO)CCCOc1ccc2c(Nc3cc(CC(=O)Nc4cccc(F)c4)[nH]n3)ncnc2c1 [AZD2811] + C[C@@H]1COCCN1C2=NC(=NC(=C2)C3(CC3)[S@](=N)(=O)C)C4=C5C=CNC5=NC=C4 [AZD6738] (first compound max 1 µM, 7x7, partner max 10 µM)	-0.131	-0.103	-0.0468	0.0336	-0.0712	-0.0369	-0.0357	-0.057	-0.0451	-0.0184	-0.0203	-0.0698	-0.0477	-0.0492	0.0137	-0.0366	-0.0357	-0.0579	0	-0.0619
CCN(CCO)CCCOc1ccc2c(Nc3cc(CC(=O)Nc4cccc(F)c4)[nH]n3)ncnc2c1 [AZD2811] + O=C(c1cc(Cc2n[nH]c(=O)c3ccccc23)ccc1F)N1CCN(C(=O)C2CC2)CC1 [Olaparib] (first compound max 1 µM, 7x7, partner max 10 µM)	-0.0249	0.0017	-0.027	0.0634	0.0128	-0.0081	-0.014	-0.0469	0.0318	-0.021	-0.0127	0.02	0.0053	0.0034	0.0042	-0.0082	-0.021	-0.0546	-0.0304	0.0453
CN(CCO)CC[C@H](CSc1ccccc1)Nc1ccc(S(=O)(=O)NC(=O)c2ccc(N3CCC([C@@H](O)c4ccccc4-c4ccc(Cl)cc4)CC3)cc2)cc1S(=O)(=O)C(F)(F)F [AZD4320] + CN(C)CCCOc1ccc(-c2ccc3ncc4c(c3c2)n(C2CCOCC2)c(=O)n4C)cn1 [AZD0156] (first compound max 1 µM, 7x7, partner max 1 µM)	-0.0321	-0.0416	-0.0282	-0.0012	-0.0496	0.0307	0.0316	0.0026	-0.029	-0.0225	-0.0344	0.0092	-0.0265	-0.0468	0.0102	-0.0009	-0.0584	-0.0269	-0.0257	-0.0519
COc1nnc2ccc(N3CCC(c4ccc(OCCN5CCN(C)C(=O)[C@H]5C)cc4)CC3)nn12 [AZD5153] + C=CCn1c(=O)c2cnc(Nc3ccc(N4CCN(C)CC4)cc3)nc2n1-c1cccc(C(C)(C)O)n1 [AZD1775] (first compound max 1 µM, partner max 1 µM)	-0.0339	0.0047	-0.0776	-0.0038	-0.0368	-0.0221	0.0269	-0.0367	-0.0753	-0.0784	-0.0054	-0.0572	0.0035	-0.0887	-0.0939	-0.0334	-0.0698	-0.113	-0.0295	-0.0523
COc1nnc2ccc(N3CCC(c4ccc(OCCN5CCN(C)C(=O)[C@H]5C)cc4)CC3)nn12 [AZD5153] + CC1(C)CCC(CN2CCN(c3ccc(C(=O)NS(=O)(=O)c4ccc(NCC5CCOCC5)c([N+](=O)[O-])c4)c(Oc4cnc5[nH]ccc5c4)c3)CC2)=C(c2ccc(Cl)cc2)C1 [Venetoclax] (first compound max 1 µM, 7x7, partner max 1 µM)	-0.0013	-0.0308	-0.0691	-0.0444	-0.0427	-0.0592	-0.0406	-0.0497	-0.0671	-0.0523	-0.0629	-0.052	0.0374	-0.0383	-0.0378	-0.0573	-0.0043	-0.0241	-0.0242	-0.0689
Cc1c2c(nn1C)CSCc1cc(n(C)n1)CSc1cc(c3ccccc3c1)OCCCc1c(C(=O)O)n(C)c3c-2c(Cl)ccc13 [AZD5991] + CN(C)CCCOc1ccc(-c2ccc3ncc4c(c3c2)n(C2CCOCC2)c(=O)n4C)cn1 [AZD0156] (first compound max 1 µM, 7x7, partner max 1 µM)	-0.0028	-0.167	-0.0444	-0.0219	0.005	-0.0089	0.0854	-0.0564	0.0345	-0.0096	-0.0129	-0.0705	0.0044	0.0048	0.0047	-0.0058	-0.0079		0.0162	-0.0094
CCc1c2c(nc3ccc(O)cc13)-c1cc3c(c(=O)n1C2)COC(=O)[C@]3(O)CC [SN-38] + O=C(c1cc(Cc2n[nH]c(=O)c3ccccc23)ccc1F)N1CCN(C(=O)C2CC2)CC1 [Olaparib] (first compound max 0.3 µM, 7x7, partner max 10 µM)	0.0458	0.0497	0.0586		0.017		0.0457		0.0524		0.035				0.071	-0.012	0.0415	0.0315	0.0413	0.0545
